Measured values reported in patent publication US20210262025A1, “MULTIPLEXED IN VIVO DISEASE SENSING WITH NUCLEIC ACID-BARCODED REPORTERS” (Massachusetts Institute of Technology, priority 2020, published 2021).
“Also recorded” adds a separate entry of the source. Strand notation (5' to 3'): a small letter for the sugar, then the base; units joined by * are phosphorothioate-linked, units joined directly phosphodiester-linked; [ ] holds rarer units or linkages, { } end groups; capitals alone tell only the bases. Primed or numbered codes have the meaning given here. Where no end group is shown, it is not given here. [ ]: non-standard residue; d: D form. The star is where a group is joined. 5FAM = O=C1OC2(c3ccc(O)cc3Oc3cc(O)ccc32)c2ccc(C(=O)*)cc21; PEG2′ = not defined here; d = 2'-deoxy (DNA); CPQ2 = quencher

Tests used:
[1] = tested on: LbaCas12a; experiment: Cas12a fluorescent cleavage assay, DNA activators in solution; type: biochemical, Lachnospiraceae bacterium ND2006
Source text: (§1) In particular, the Cas12a from Lachnospiraceae bacterium ND2006 (LbaCas12a, UniProtKB Accession No. A0A182DWE3) assembled with guide CRISPR RNA sequences (crRNAs) recognizes 1) a T nucleotide-rich protospacer-adjacent motif (PAM) to target double-stranded DNA (dsDNA), or 2) single-stranded DNA (ssDNA) through sequence complementarity in a PAM-independent manner, and unleashes a robust, nonspecific ssDNA trans-cleavage activity that can be monitored using a fluorophore (F)-quencher (Q)-labeled reporter (FIG. 2A) (Chen et al. Science 360, 436-439 (2018)). […] In Table 6, activation of Cas12a with native and modified DNA oligos was quantified in the Cas12a fluorescent cleavage assay. […]
(§2) LbCas12a (final concentration 100 nM, New England Biolabs) was incubated with 1× NEB BUFFER™ 2.1, crRNA (250 nM, IDT) and complementary DNA activators (4 nM unless specifically described, IDT, in solution or spiked in urine) or urine samples collected from experimental animals at 37° C. for 30 min. […] LbCas12a activation was detected at 37° C. every 2 min for 3 hours by measuring fluorescence with plate reader Tecan Infinite Pro M200 (λex: 485 nm and λem: 535 nm). Fluorescence for background conditions (either no DNA activator input or no crRNA conditions) were run with each assay to generate background fluorescence as negative controls. […]

[2] = tested on: LbaCas12a; experiment: Cas12a fluorescent cleavage assay with urine of mice injected with DNA activators; type: in vivo, Lachnospiraceae bacterium ND2006; details: urine collected after 1 h added to reaction
Source text: as §1, §2

[3] = tested on: tumor tissue homogenates; experiment: Tissue lysate proteolytic cleavage assay of FRET-paired peptide substrates; type: biochemical, Balb/c mice; details: tumor-bearing or healthy lung tissue homogenates, ex vivo
Description: FIGS. 6A-6E show experiments relating to portable monitoring invasive CRC using DNA-encoded multiplex synthetic urine biomarkers. […] Peptide cleavage kinetics were monitored and cleavage rates were plotted (n=5 mice per group; ±SEM; unpaired t-test with Welch's correction, **P<0.01, ****P<0.0001). […] All urine samples were collected at 1 h after sensor administration. Cas12a trans-cleavage assays were performed against each DNA-barcode with the fluorophore-quencher paired reporter. Initial reaction velocity (V0) of the Cas12a trans-cleavage assays were calculated and normalized to that of saline injected control animals (n=8 or 10 mice per group; ±SEM; unpaired t-test with Welch's correction, *P<0.05, **P<0.01). The initial reaction velocity (V0) refers to the slope of the curve at the beginning of a reaction. […] Band intensities were quantified using ImageJ. […] ROC analysis utilized ratio of quantified cleaved reporter band intensity over its corresponding control band intensity. Dashed line represents an AUC of 0.5, and a perfect AUC is 1.0.
Tissue samples were homogenized in PBS and centrifuged at 4° C. for 5 min at 6,000×g. Supernatant was further centrifuged at 14,000×g for 25 min at 4° C. Protein concentration was measured using ThermoFisher BCA Protein Assay Kit and prepared at 2 mg/mL prior to assay. Assays were performed in the 384-well plate in triplicate in enzyme-specific buffer with peptides (1 μM) and cell lysates (0.33 mg/mL) in 30 μL at 37° C. Fluorescence was measured at Ex/Em 485/535 nm using a Tecan Infinite 200pro microplate reader (Tecan). Signal increase at 60 min was used across conditions.

[4] = tested on: serine and metalloproteases; experiment: Recombinant protease substrate cleavage assay; type: biochemical
Description: Fluorogenic protease substrates with fluorophore (FAM) and quencher (CPQ2) were synthesized by CPC Scientific Inc. Recombinant proteases were purchased from Enzo Life Sciences and R&D Systems. Assays were performed in the 384-well plate in triplicate in enzyme-specific buffer with peptides (1 μM) and proteases (40 nM) in 30 μL at 37° C. Fluorescence was measured at Ex/Em 485/535 nm using a Tecan Infinite 200pro microplate reader (Tecan). Signal increase at 60 min was used across conditions.

[5] = tested on: T1, FRET-PAP11
T1 sequence: GGGSGRSANAKGKGC

[6] = molecular target: T2, cMET (human, UniProt P08581 25-1390); experiment: in vivo biodistribution (IVIS imaging) of Cy7-labelled nanobody after i.v. injection into nude mice bearing cMET-expressing PC-3 xenografts
T2 construct: whole, on cells; The target is presented on cMET- and PLAU-expressing tumors derived from PC-3 cells in nude mice; It is not a purified protein

[7] = tested on: subcutaneous PC-3 tumors; set-up: species or system nude mice; details: mouse, in vivo
Description: Studies were performed in experimental animals with near-infrared dye labeled agents to minimize interference from autofluorescent background. Balb/c mice were intravenously injected with Cy5-labeled modified or native DNA molecules at 1 nmol per mouse, n=3 per condition. Urine samples from each mouse was collected at 30 min, 1, 2, 3, 4 hours after injection. C-met nanobodies were coupled with Sulfo-Cyanine7 NHS ester (Lumiprobe), reacted overnight, purified by spin filtration and injected into PC-3 tumor-bearing nude mice (1.5 nmol dye eq. of protein) via i.v. injection. After 24 hours, mice were euthanized and necropsy was performed to remove the tumors, lungs, heart, kidneys, liver, and spleen. Urine, blood and organs were scanned using IVIS Imaging Systems and ODYSSEY® CLx (LI-COR). Organ fluorescence was quantified in ImageStudio of ODYSSEY® CLx. Blood circulatory kinetics were monitored in Balb/c mice by serial blood draws at 10 min, 30 min, 120 min and 180 min after i.v. injection of Cy5-labeled DNA or PEG at 1 nmol dye per mouse. Blood for pharmacokinetics measurements was collected using tail vain bleeds. Blood was diluted in PBS with 5 mM EDTA to prevent clotting, centrifuged for 5 min at 5,000×g, and fluorescent reporter concentration was quantified in 384-well plates relative to standards (LI-COR ODYSSEY® CLx).

[8] = Solubility of purified recombinant nanobody; type: physicochemical; details: after affinity and size-exclusion chromatography
Source text: One major challenge for diagnosis and therapy of cancer is tailoring multiple disease signatures, which are defined by biological differences spanning genetic, transcriptomic, and proteomic differences between tumor and healthy tissue, while minimizing off-target effects (Hunter, K. Nature reviews. Cancer 2006, 6, 141). To this end, a tumor-targeting nanobody was re-engineered to construct protease-activatable nanobodies through programmable genetic encoding (FIGS. 5A-5B). Protease-activatable nanobodies were constructed by inserting a well characterized PLAU substrate (PQ2: GGSGRSANAK (SEQ ID NO: 3)) with an unpaired cysteine for one-step site-specific labeling of cargos via a thio-ether bond (see, e.g., Masa et al., Bioconjugate chemistry 2014, 25, 979). The cysteine was introduced at the carboxyl terminus, positioning the conjugation-site on the opposite side of the antigen-binding region to avoid antigen binding interference. To prevent possible misfolding caused by the internal disulfide bond present in the Nb, the peptide substrate with cysteine is spaced by a rigid linker (SPSTPPTPSPSTPP (SEQ ID NO: 6)) from the Nb sequence.

T2 sequence (P08581 25-1390): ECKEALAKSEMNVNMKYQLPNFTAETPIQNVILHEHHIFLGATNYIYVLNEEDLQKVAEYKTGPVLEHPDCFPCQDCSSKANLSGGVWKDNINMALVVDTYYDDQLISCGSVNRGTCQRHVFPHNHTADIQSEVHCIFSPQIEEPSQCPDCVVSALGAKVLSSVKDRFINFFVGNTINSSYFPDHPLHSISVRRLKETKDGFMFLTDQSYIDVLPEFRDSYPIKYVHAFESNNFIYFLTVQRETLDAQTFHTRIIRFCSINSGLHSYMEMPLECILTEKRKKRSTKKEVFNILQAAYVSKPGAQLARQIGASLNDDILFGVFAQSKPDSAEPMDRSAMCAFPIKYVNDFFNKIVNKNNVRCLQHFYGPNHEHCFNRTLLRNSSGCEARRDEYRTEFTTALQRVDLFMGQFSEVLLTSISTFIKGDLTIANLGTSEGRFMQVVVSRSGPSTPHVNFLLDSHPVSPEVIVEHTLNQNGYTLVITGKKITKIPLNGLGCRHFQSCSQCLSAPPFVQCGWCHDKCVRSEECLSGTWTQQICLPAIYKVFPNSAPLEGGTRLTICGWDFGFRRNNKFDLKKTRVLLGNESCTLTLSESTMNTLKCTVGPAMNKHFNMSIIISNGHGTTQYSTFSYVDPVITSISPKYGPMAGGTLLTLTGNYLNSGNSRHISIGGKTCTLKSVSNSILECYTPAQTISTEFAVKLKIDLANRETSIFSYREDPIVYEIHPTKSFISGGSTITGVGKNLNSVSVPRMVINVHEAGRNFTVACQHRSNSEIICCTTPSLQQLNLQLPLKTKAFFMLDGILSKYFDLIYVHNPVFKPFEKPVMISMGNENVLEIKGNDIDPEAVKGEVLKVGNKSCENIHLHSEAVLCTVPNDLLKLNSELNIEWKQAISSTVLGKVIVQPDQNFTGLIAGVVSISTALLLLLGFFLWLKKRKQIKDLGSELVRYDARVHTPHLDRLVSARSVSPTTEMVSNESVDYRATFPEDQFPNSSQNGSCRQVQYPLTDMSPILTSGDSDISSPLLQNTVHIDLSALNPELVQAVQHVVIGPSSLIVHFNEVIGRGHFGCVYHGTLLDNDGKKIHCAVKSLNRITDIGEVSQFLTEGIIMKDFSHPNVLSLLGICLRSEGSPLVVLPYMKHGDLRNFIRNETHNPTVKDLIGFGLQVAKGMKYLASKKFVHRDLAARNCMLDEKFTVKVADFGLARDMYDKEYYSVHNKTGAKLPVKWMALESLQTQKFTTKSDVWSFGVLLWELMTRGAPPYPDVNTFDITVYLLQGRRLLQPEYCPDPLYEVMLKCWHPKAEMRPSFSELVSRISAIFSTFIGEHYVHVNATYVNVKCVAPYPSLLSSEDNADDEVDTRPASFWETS

10 mer: native ssDNA activator CGTAACGATC (SEQ ID NO: 28) (unmodified DNA)
Native DNA in vitro (V0) ([1]; initial reaction velocity, 4 nM of native DNA activator per reaction): 0.00 | Native DNA in vivo (V0) ([2]; 1 nmol native DNA activator injected into healthy Balb/c mice): 0.00

FRET-PAP7: 5FAM-GGPLGVRGKK(CPQ2)-PEG2-GC (SEQ ID NO: 61) (5FAM-GGPLGVRGKK(CPQ2)[PEG2′]GC)
cleavage by tissue homogenates [3]: specifically cleaved

FRET-PAP9: 5FAM-GGfPRSGGGK(CPQ2)-PEG2-GC (SEQ ID NO: 63)
cleavage by tissue homogenates [3]: specifically cleaved; also recorded: distinct cleavage patterns | cleavage by recombinant proteases in vitro [4]: cleaved by serine and metalloproteases in vitro

FRET-PAP11: 5FAM-GGGSGRSANAKG-K(CPQ2)-PEG2-GC (SEQ ID NO: 65) (5FAM-GGGSGRSANAKGK(CPQ2)[PEG2′]GC)
cleavage by tissue homogenates [3]: specifically cleaved

FRET-PAP13: 5FAM-GGVPRGG-K(CPQ2)-PEG2-GC (SEQ ID NO: 67) (5FAM-GGVPRGGK(CPQ2)[PEG2′]GC)
cleavage by tissue homogenates [3]: specifically cleaved

Mod 10 mer: fully phosphorothioate-modified ssDNA activator, SEQ ID NO: 35 (DNA dC*dG*dT*dA*dA*dC*dG*dA*dT*dC)
Modified DNA in vitro (V0) ([1]; initial reaction velocity (slope at beginning of reaction), 4 nM of phosphorothioate-modified DNA activator per reaction): 0.01 | Modified DNA in vivo (V0) ([2]; 1 nmol modified DNA activator injected into healthy Balb/c mice): 0.01

PLAU (urokinase-type plasminogen activator), recombinant
cleavage of FRET-paired peptide substrate by recombinant protease (fluorogenic activity assay, FIG. 13D) [5]: The peptide substrate specifically responded to the PCa-associated protease PLAU

B1: cMET nanobody (PLAU-activated, cMET-targeting nanobody) (VHH)
VHH: EVQLVESGGGLVQPGGSLRLSCAASGFILDYYAIGWFRQAPGKEREGVLCIDASDDITYYADSVKGRFTISRDNAKNTVYLQMNSLKPEDTGVYYCATPIGLSSSCLLEYDYDYWGQGTLVTVSS
modifications: labelled with Sulfo-Cyanine7 NHS ester for the biodistribution study (sites not given)
notes: also called C-met nanobodies; Nb-PAS
binding result [6]: binds

B2: cMET nanobody: PLAU-activated, cMET-targeting nanobody with rigid linker, PLAU substrate and unpaired cysteine, SEQ ID NO: 71 (protein)
VHH: MEVQLVESGGGLVQPGGSLRLSCAASGFILDYYAIGWFRQAPGKEREGVLCIDASDDITYYADSVKGRFTISRDNAKNTVYLQMNSLKPEDTGVYYCATPIGLSSSCLLEYDYDYWGQGTLVTVSSGSHHHHHHSPSTPPTPSPSTPPGSGRSANAKGGGSC
tumor trafficking upon systemic administration [7]: mediated active tumor trafficking | solubility [8]: comparable solubility with the original Nb

B3: GFP nanobody: non-targeting nanobody against GFP (Clone LaG-16) with rigid linker, PLAU substrate and cysteine, SEQ ID NO: 72 (protein)
VHH: MAQVQLVESGGRLVQAGDSLRLSCAASGRTFSTSAMAWFRQAPGREREFVAAITWTVGNTILGDSVKGRFTISRDRAKNTVDLQMDNLEPEDTAVYYCSARSRGYVLSVLRSVDSYDYWGQGTQVTVSGSHHHHHHSPSTPPTPSPSTPPGSGRSANAKGGGSC
tumor trafficking upon systemic administration [7]: did not
